The source of these data is patent publication US11072634B2, “Inhibitors of transglutaminases” (Zedira GmbH, priority 2016, dated 2021).

The IC50 is the concentration at which inhibition is half-maximal.

*1 amine or outer side, *2 acyl side, *3 side chain or, on linkers, in order; H or OH if unused. Where a SMILES comes first, the peptide text is derived from it. [ ]: non-standard residue; d: D form. The star is where a group is joined. Nle(5,6-dioxo,6-NHMe) = CNC(=O)C(=O)CC[C@H](N)C(=O)O; X2 = CC(C)(C)NC(=O)C(=O)CC[C@H](N[*:1])C(=O)[*:2]; X1 = CCCCCNC(=O)C(=O)CC[C@H](N[*:1])C(=O)[*:2]; Isonicotinoyl(3-COOH) = O=C(O)c1cnccc1C(=O)*; Pro(4-oxo) = O=C1CN[C@H](C(=O)O)C1; Chg = N[C@H](C(=O)O)C1CCCCC1; Tle = CC(C)(C)[C@H](N)C(=O)O; Nle = CCCC[C@H](N)C(=O)O Bounds are passed on as bounds.

For one test, the target named is T1, TG2 (Homo sapiens, UniProt P21980).
T1 sequence (P21980 1-687): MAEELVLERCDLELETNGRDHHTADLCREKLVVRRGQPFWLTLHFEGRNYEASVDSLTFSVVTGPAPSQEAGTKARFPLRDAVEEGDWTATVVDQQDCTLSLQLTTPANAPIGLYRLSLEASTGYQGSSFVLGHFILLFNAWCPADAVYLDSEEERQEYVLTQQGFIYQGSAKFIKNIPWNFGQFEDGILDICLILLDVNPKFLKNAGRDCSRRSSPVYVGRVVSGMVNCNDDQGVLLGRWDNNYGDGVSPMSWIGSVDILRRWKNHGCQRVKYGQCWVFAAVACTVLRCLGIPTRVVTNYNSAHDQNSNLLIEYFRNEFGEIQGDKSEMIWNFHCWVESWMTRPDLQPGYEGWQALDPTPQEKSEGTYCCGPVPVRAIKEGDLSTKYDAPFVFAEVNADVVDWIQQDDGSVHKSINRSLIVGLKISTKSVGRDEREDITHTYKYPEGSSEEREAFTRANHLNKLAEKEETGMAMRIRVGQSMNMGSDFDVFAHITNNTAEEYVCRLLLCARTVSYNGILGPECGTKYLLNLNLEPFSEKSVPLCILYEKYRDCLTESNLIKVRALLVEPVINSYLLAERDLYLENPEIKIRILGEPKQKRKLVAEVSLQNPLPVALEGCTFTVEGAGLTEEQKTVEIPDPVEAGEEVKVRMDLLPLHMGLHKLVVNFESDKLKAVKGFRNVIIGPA
Briefly: FXIII assay format using TG2 instead of FXIII (selectivity of FXIIIa blockers). The test is classed as biochemical. Particulars: Table 3, selectivity with respect to TG2; read-out: IC50 TG2. On the procedure: (§1) 50 μg lyophilized His-tagged recombinant human factor XIII A-subunit (His6-rhFXIII, Zedira product 1027) is reconstituted in H2O (volume depends on original volume before lyophilization) resulting in a buffer containing 20 mM Tris-HCl, 150 mM NaCl, 1 mM EDTA, 1 mM DTT, 189 mg/ml maltodextrin, pH=7.5. The rhFXIII stock solution is diluted in buffer (50 mM Tris-HCl, 7.5 mM CaCl2, 150 mM NaCl, pH=7.4) to give a working solution of 59 U/ml (based on the amine-incorporation activity measured using transglutaminase activity assay #1036 (Zedira GmbH), described below).
(§2) A 10 mM inhibitor stock solution is prepared in DMSO, and from this a serial 1:2-fold dilution series is prepared also in DMSO. Each of the initial dilutions is subsequently diluted 1:50-fold with buffer (50 mM Tris-HCl, 7.5 mM CaCl2, 150 mM NaCl, pH=7.4) to yield the final working dilutions containing 2% (v/v) DMSO.
(§3) 15 μl of inhibitor working dilution are added per well of a 96 well microtiter plate. As control, 15 μl of a 2% (v/v) DMSO solution prepared using the buffer mentioned above are added per well.
(§4) 480 μl of His6-rhFXIII working solution and 120 μl human alpha thrombin (0.5 NIH units/μl) are added to 10.8 ml assay buffer (50 mM Tris-HCl, 7.5 mM CaCl2, 150 mM NaCl, 5 mM DTT, 13.4 mM glycine methylester, 50 μM Abz-NE(CAD-DNP)EQVSPLILLK-OH, (Zedira product A101; patent No.: EP 1781807B1), pH=7.4). From this master-mix solution, 285 μl are added per well containing the inhibitor. Increase in fluorescence is measured using […] and λem=418 nm at 37° C. for 35 min. A slope of the increase in fluorescence between 20 and 30 min is calculated for determination of the IC50 value (inhibitor concentration at which 50% of the initial FXIII activity is blocked).
This assay was also used to determine selectivity of inhibitors preferentially blocking FXIIIa by using TG2 instead of FXIII.
(§5) Analysis of enzymatic activity is performed by calculation of the slope of an increase in fluorescence intensity. IC50 values are calculated by plotting the enzymatic activity (as percentage from control containing 2% DMSO instead of inhibitor) against the inhibitor concentration. IC50 is defined as the inhibitor concentration blocking 50%) of initial enzyme activity.

Test [1] has as its system fresh citrated whole blood. Briefly: Thromboelastometry (ROTEM delta) in whole blood with t-PA. Particulars: human whole blood; for reduction of maximum clot firmness (MCF) compared to control (K): 6.25-50 μM, with t-PA; for clot lysis at 60 minutes (LI60): in the presence of 0.02% t-PA. On the procedure: Thromboelastometry is a visco-elastic method for the assessment of blood coagulation. In whole blood parameters like clotting time (CT), clot formation time (CFT), maximum clot firmness (MCF) and lysis index at 60 min (LI60) were obtained using the ROTEM® delta device according to the manufacturer.
Briefly, 20 μL star-TEM® (0.2 mol/l CaCl2), 20 μL r ex-TEM® (recombinant tissue factor, phospholipids, heparin inhibitor), 10 μL inhibitor stock solution (1.8-0.23 mM), combined with 10 μL t-PA stock solution (0.72 μg/ml) to yield concentrations of 0.9-0.11 mM in 18% DMSO/PBS with 0.36 μg/ml t-PA and 300 μL fresh citrated whole blood (human, from healthy consenting donors) were mixed in a disposable cuvette. As control the inhibitor stock solution was replaced by 36% DMSO/0.36 μg/ml t-PA in PBS.

The target of test [2] is T2, recombinant human factor XIII A-subunit (rhFXIII-A, plasma transglutaminase) (Homo sapiens, UniProt P00488).
T2 construct: His6; purchased Zedira 1027 (so in the source); T027)
T2 sequence (P00488 39-732 limits assumed): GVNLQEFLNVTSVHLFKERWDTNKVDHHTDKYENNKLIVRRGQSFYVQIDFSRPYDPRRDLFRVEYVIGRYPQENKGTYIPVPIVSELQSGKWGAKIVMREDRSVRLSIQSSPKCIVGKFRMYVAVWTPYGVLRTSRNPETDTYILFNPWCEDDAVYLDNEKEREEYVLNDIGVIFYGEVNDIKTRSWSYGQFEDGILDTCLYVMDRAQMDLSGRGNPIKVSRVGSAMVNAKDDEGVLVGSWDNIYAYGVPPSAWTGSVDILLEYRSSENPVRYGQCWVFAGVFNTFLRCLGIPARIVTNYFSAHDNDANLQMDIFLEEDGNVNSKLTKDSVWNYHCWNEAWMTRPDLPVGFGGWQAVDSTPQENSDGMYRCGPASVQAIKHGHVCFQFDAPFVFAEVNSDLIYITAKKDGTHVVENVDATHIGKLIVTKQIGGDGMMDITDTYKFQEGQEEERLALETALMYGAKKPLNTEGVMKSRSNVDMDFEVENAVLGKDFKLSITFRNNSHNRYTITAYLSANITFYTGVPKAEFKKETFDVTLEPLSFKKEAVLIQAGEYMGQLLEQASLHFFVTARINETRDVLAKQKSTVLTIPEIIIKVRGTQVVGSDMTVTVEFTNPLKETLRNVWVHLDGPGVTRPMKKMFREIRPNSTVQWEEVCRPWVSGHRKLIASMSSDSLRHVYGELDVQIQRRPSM
Put plainly: Inhibition of rec. human coagulation factor XIII (fluorescence, Abz-NE(CAD-DNP)EQVSPLILLK-OH). The test is classed as biochemical. Particulars: Table 3, FXIII inhibitors; read-out: IC50 FXIII. On the procedure: Method for Inhibition Studies of Rec. Human Coagulation Factor XIII (Plasma Transglutaminase, rhFXIII-A)
as §1, §2, §3, §4, §5

Turning to `CNC(=O)C(=O)CC[C@H](NC(=O)c1ccncc1C(=O)O)C(=O)N[C@H](C(=O)N1CC(=O)C[C@H]1C(=O)N[C@H](C(=O)N[C@H](C(N)=O)C1CCCCC1)C1CCCCC1)C(C)(C)C` [Compound E25, 4-((S)-1-((S)-1-((S)-2-((S)-2-((S)-2-amino-1-cyclonexyl-2-oxoethylamino)-1-cyclonexyl-2-oxoethylcarbamoyl)-4-oxopyrrolidin-1-yl)-3,3-dimethyl-1-oxobutan-2-ylamino)-6-(methylamino)-1,5,6-trioxohexan-2-ylcarbamoyl)nicotinic acid] ({Isonicotinoyl(3-COOH)}-[Nle(5,6-dioxo,6-NHMe)][Tle][Pro(4-oxo)][Chg][Chg]-NH2), the IC50 on TG2 came to 5500 nM; in test [2], 50 nM. For the same compound, the “reduction of maximum clot firmness (MCF) compared to control (K)” value in test [1] is reported as “dose dependent influence”. Moreover, in test [1], the “clot lysis at 60 minutes (LI60)” value is listed as “dose dependent influence”.

As for `CCCCCNC(=O)C(=O)CC[C@H](NC(=O)c1ccncc1C(=O)O)C(=O)N[C@H](C(=O)N1CC(=O)C[C@H]1C(=O)N[C@H](C(=O)N[C@H](C(N)=O)C1CCCCC1)C1CCCCC1)C(C)(C)C` [Compound E27, 4-((S)-1-((S)-1-((S)-2-((S)-2-((S)-2-amino-1-cyclohexyl-2-oxoethylamino)-1-cyclohexyl-2-oxoethylcarbamoyl)-4-oxopyrrolidin-1-yl)-3,3-dimethyl-1-oxobutan-2-ylamino)-6-1,5,6-trioxo-6-(pentylamino)hexan-2-ylcarbamoyl)nicotinic acid] ({Isonicotinoyl(3-COOH)}-[X1][Tle][Pro(4-oxo)][Chg][Chg]-NH2), the figures for the IC50 (on TG2; in test [2]) were 7800 nM and 60 nM, respectively. Moreover, in test [1], the “reduction of maximum clot firmness (MCF) compared to control (K)” value is on record as “dose dependent influence”. Further, the “clot lysis at 60 minutes (LI60)” value in test [1] is listed as “dose dependent influence”.

On to `CCCC[C@H](NC(=O)[C@H](CCC(=O)C(=O)NC)NC(=O)CNC(=O)[C@@H]1CCCN1C(=O)CNC(=O)[C@H](CC(C)C)NC(C)=O)C(=O)N[C@H](C(=O)N[C@@H](CC(C)C)C(=O)N1CCC[C@H]1C(=O)N[C@@H](Cc1c[nH]c2ccccc12)C(N)=O)[C@@H](C)CC` [Compound E37, (S)-2-(2-((S)-1-(2-((S)-2-acetamido-4-methylpentanamido)acetyl)pyrrolidine-2-carboxamido)acetamido)-N1-((S)-1-((2S,3S)-1-((S)-1-((S)-2-((S)-1-amino-3-(1H-indol-3-yl)-1-oxopropan-2-ylcarbamoyl)pyrrolidin-1-yl)-4-methyl-1-oxopentan-2-ylamino)-3-methyl-1-oxopentan-2-ylamino)-1-oxohexan-2-yl)-N6-methyl-5-oxohexanediamide] (Ac-LGPG[Nle(5,6-dioxo,6-NHMe)][Nle]ILPW-NH2), for which the IC50 at TG2 worked out at 390 nM; in test [2], 2500 nM.

For the compound `CC(C)(C)NC(=O)C(=O)CC[C@H](NC(=O)c1ccncc1C(=O)O)C(=O)N[C@H](C(=O)N1CC(=O)C[C@H]1C(=O)N[C@H](C(=O)N[C@H](C(N)=O)C1CCCCC1)C1CCCCC1)C(C)(C)C` [Compound E30, 4-((S)-1-((S)-1-((S)-2-((S)-2-((S)-2-amino-1-cyclohexyl-2-oxoethylamino)-1-cyclohexyl-2-oxoethylcarbamoyl)-4-oxopyrrolidin-1-yl)-3,3-dimethyl-1-oxobutan-2-ylamino)-6-(tert-butylamino)-1,5,6-trioxohexan-2-ylcarbamoyl)nicotinic acid] ({Isonicotinoyl(3-COOH)}-[X2][Tle][Pro(4-oxo)][Chg][Chg]-NH2), the half-inhibitory concentration (IC50) on TG2 was over 20000 nM; in test [2], 2900 nM.
